Columns and labels:
[1] = Liquid; for speed of sound: Sing-around technique in a fixed-path interferometer
[2] = xn = mol fraction of the nth substance listed; conditions: 101 kPa, Liquid

CCCCOCCO [2-butoxyethan-1-ol]
[1]
Conditions | mass density [kg/m3] | speed of sound [m/s]
293.15 K | 900.094 | 1322.5
298.15 K | 895.91 | 1304.9
303.15 K | 891.697 | 1288

COCCOCCO [2-(2-methoxyethoxy)ethanol] + COCCO
[2]
Conditions | mass density [kg/m3]
293.15 K, x2 = 0.1005 | 1016.02
293.15 K, x2 = 0.1489 | 1014.09
293.15 K, x2 = 0.1983 | 1012.06
293.15 K, x2 = 0.2003 | 1011.98
293.15 K, x2 = 0.2517 | 1009.77
293.15 K, x2 = 0.2969 | 1007.77
293.15 K, x2 = 0.2993 | 1007.67
293.15 K, x2 = 0.3475 | 1005.45
293.15 K, x2 = 0.3505 | 1005.31
293.15 K, x2 = 0.3985 | 1003.01
293.15 K, x2 = 0.45 | 1000.45
293.15 K, x2 = 0.5003 | 997.85
293.15 K, x2 = 0.5998 | 992.362
293.15 K, x2 = 0.6476 | 989.566
293.15 K, x2 = 0.6993 | 986.398
293.15 K, x2 = 0.7475 | 983.311
293.15 K, x2 = 0.7485 | 983.242
293.15 K, x2 = 0.7971 | 979.992
293.15 K, x2 = 0.8465 | 976.527
293.15 K, x2 = 0.8977 | 972.767
293.15 K, x2 = 0.9483 | 968.858
298.15 K, x2 = 0.0523 | 1013.47
298.15 K, x2 = 0.1027 | 1011.52
298.15 K, x2 = 0.1523 | 1009.54
298.15 K, x2 = 0.1974 | 1007.67
298.15 K, x2 = 0.2507 | 1005.39
298.15 K, x2 = 0.294 | 1003.47
298.15 K, x2 = 0.3472 | 1001.02
298.15 K, x2 = 0.3976 | 998.612
298.15 K, x2 = 0.4502 | 995.991
298.15 K, x2 = 0.4981 | 993.508
298.15 K, x2 = 0.5 | 993.405
298.15 K, x2 = 0.5455 | 990.948
298.15 K, x2 = 0.5989 | 987.943
298.15 K, x2 = 0.6471 | 985.114
298.15 K, x2 = 0.7005 | 981.838
298.15 K, x2 = 0.749 | 978.717
298.15 K, x2 = 0.7983 | 975.395
298.15 K, x2 = 0.846 | 972.046
298.15 K, x2 = 0.8832 | 969.324
298.15 K, x2 = 0.8956 | 968.391
298.15 K, x2 = 0.9483 | 964.311
303.15 K, x2 = 0.0536 | 1008.92
303.15 K, x2 = 0.1018 | 1007.06
303.15 K, x2 = 0.15 | 1005.13
303.15 K, x2 = 0.2011 | 1003.02
303.15 K, x2 = 0.2499 | 1000.92
303.15 K, x2 = 0.2515 | 1000.85
303.15 K, x2 = 0.301 | 998.636
303.15 K, x2 = 0.3527 | 996.24
303.15 K, x2 = 0.3986 | 994.036
303.15 K, x2 = 0.4493 | 991.5
303.15 K, x2 = 0.5028 | 988.711
303.15 K, x2 = 0.5499 | 986.158
303.15 K, x2 = 0.6 | 983.323
303.15 K, x2 = 0.6482 | 980.488
303.15 K, x2 = 0.6941 | 977.672
303.15 K, x2 = 0.7485 | 974.182
303.15 K, x2 = 0.7979 | 970.854
303.15 K, x2 = 0.8989 | 963.546
303.15 K, x2 = 0.9476 | 959.766

CCOCCO [2-ethoxyethan-1-ol]
[1]
Conditions | mass density [kg/m3] | speed of sound [m/s]
293.15 K | 929.545 | 1319.9
298.15 K | 925.027 | 1301.7
303.15 K | 920.457 | 1284.2

CCCOCCO [2-propoxyethanol]
[1]
Conditions | mass density [kg/m3] | speed of sound [m/s]
293.15 K | 911.515 | 1316.6
298.15 K | 907.151 | 1298.6
303.15 K | 902.736 | 1281.1

COCCO [2-methoxyethan-1-ol]
[1]
Conditions | mass density [kg/m3] | speed of sound [m/s]
293.15 K | 964.656 | 1359.2
298.15 K | 960.088 | 1341.6
303.15 K | 955.471 | 1324.3

CCCCOCCO [2-butoxyethan-1-ol] + COCCO
[2]
Conditions | mass density [kg/m3]
293.15 K, x2 = 0.0524 | 902.021
293.15 K, x2 = 0.1023 | 903.942
293.15 K, x2 = 0.1513 | 905.929
293.15 K, x2 = 0.2009 | 908.026
293.15 K, x2 = 0.2491 | 910.172
293.15 K, x2 = 0.3006 | 912.586
293.15 K, x2 = 0.3411 | 914.561
293.15 K, x2 = 0.3986 | 917.531
293.15 K, x2 = 0.4484 | 920.249
293.15 K, x2 = 0.4994 | 923.189
293.15 K, x2 = 0.5492 | 926.262
293.15 K, x2 = 0.5987 | 929.459
293.15 K, x2 = 0.6489 | 932.911
293.15 K, x2 = 0.7291 | 938.888
293.15 K, x2 = 0.7487 | 940.45
293.15 K, x2 = 0.7996 | 944.683
293.15 K, x2 = 0.8491 | 949.097
293.15 K, x2 = 0.8992 | 953.883
293.15 K, x2 = 0.9495 | 959.058
298.15 K, x2 = 0.0522 | 897.844
298.15 K, x2 = 0.1029 | 899.781
298.15 K, x2 = 0.15 | 901.679
298.15 K, x2 = 0.2019 | 903.86
298.15 K, x2 = 0.2489 | 905.939
298.15 K, x2 = 0.2999 | 908.306
298.15 K, x2 = 0.3514 | 910.818
298.15 K, x2 = 0.3994 | 913.289
298.15 K, x2 = 0.449 | 915.99
298.15 K, x2 = 0.4755 | 917.493
298.15 K, x2 = 0.4987 | 918.836
298.15 K, x2 = 0.5985 | 925.072
298.15 K, x2 = 0.6476 | 928.432
298.15 K, x2 = 0.6975 | 932.045
298.15 K, x2 = 0.7481 | 935.968
298.15 K, x2 = 0.7988 | 940.157
298.15 K, x2 = 0.8476 | 944.484
298.15 K, x2 = 0.8993 | 949.386
298.15 K, x2 = 0.9478 | 954.336
303.15 K, x2 = 0.0483 | 893.466
303.15 K, x2 = 0.1002 | 895.434
303.15 K, x2 = 0.1519 | 897.493
303.15 K, x2 = 0.1997 | 899.493
303.15 K, x2 = 0.2393 | 901.221
303.15 K, x2 = 0.2476 | 901.59
303.15 K, x2 = 0.3501 | 906.436
303.15 K, x2 = 0.3985 | 908.906
303.15 K, x2 = 0.4499 | 911.682
303.15 K, x2 = 0.4966 | 914.34
303.15 K, x2 = 0.5031 | 914.737
303.15 K, x2 = 0.6119 | 921.563
303.15 K, x2 = 0.6471 | 923.963
303.15 K, x2 = 0.7275 | 929.874
303.15 K, x2 = 0.7491 | 931.575
303.15 K, x2 = 0.7969 | 935.498
303.15 K, x2 = 0.8463 | 939.82
303.15 K, x2 = 0.8986 | 944.764
303.15 K, x2 = 0.9475 | 949.713

— the NIST ThermoML archive (doi:10.1021/je8000975)
